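Results reflect a 48-hour exposure of cells in 96-well plates to compound at five concentrations. Abbreviation: GI50, concentration required for 50% inhibition of growth. The concentration for full growth arrest is given as TGI.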
Experiments:
Assay in all cases: inhibition of tumour cell growth, NCI panel, 48 h
K-562 leukemia = tested on: K-562 leukemia
CCRF-CEM leukemia = tested on: CCRF-CEM leukemia
SR leukemia = tested on: SR leukemia
HT29 colon = tested on: HT29 colon
SNB-75 CNS = tested on: SNB-75 CNS
LOX IMVI melanoma = tested on: LOX IMVI melanoma
U251 CNS = tested on: U251 CNS
PC-3 prostate = tested on: PC-3 prostate
SK-MEL-5 melanoma = tested on: SK-MEL-5 melanoma
SW-620 colon = tested on: SW-620 colon

Structure (SMILES)	GI50 (K-562 leukemia) [µM]	TGI (K-562 leukemia) [µM]	GI50 (CCRF-CEM leukemia) [µM]	TGI (CCRF-CEM leukemia) [µM]	GI50 (SR leukemia) [µM]	TGI (SR leukemia) [µM]	GI50 (HT29 colon) [µM]	TGI (HT29 colon) [µM]	GI50 (SNB-75 CNS) [µM]	TGI (SNB-75 CNS) [µM]	GI50 (LOX IMVI melanoma) [µM]	TGI (LOX IMVI melanoma) [µM]	GI50 (U251 CNS) [µM]	TGI (U251 CNS) [µM]	GI50 (PC-3 prostate) [µM]	TGI (PC-3 prostate) [µM]	TGI (SK-MEL-5 melanoma) [µM]	TGI (SW-620 colon) [µM]	GI50 (SK-MEL-5 melanoma) [µM]	GI50 (SW-620 colon) [µM]
OC(c1cc(-c2cccc(Cl)c2)nc2ccccc12)C1CCCCN1 (stereo unspecified)	1.39	4.46	2.08	4.74	1.27	3.8	1.7	3.42	1.38	3.23	1.76	3.36	1.66	3.05	1.4	2.84	–	–	–	–
COc1ccc2c(c1)[n+]([O-])c(-c1ccc([N+](=O)[O-])cc1)c(N)[n+]2[O-]	–	> 100	–	> 100	–	> 100	–	> 100	–	> 100	–	–	–	> 100	–	–	> 100	> 100	–	–
CC(=O)Nc1ccc(/C=c2\sc3nnc(CCC(=O)Nc4ccccc4Cl)n3c2=O)cc1	–	68.3	–	42.9	–	43.2	–	> 100	–	–	–	34.5	–	31.8	–	–	68.2	87.5	–	–
Cc1ccc(S(=O)(=O)c2ccc(NC(=O)SCCC(=O)O)cc2)cc1	–	> 100	–	> 100	–	> 100	–	> 100	–	> 100	–	> 100	–	> 100	–	–	–	> 100	–	–
COC(=O)C(Cc1nc2ccccc2[nH]c1=O)/C(=N\NC(C)(C)C)C(=O)Nc1c(C)cc(Br)cc1C (stereo unspecified)	–	> 100	–	57.3	–	76.2	–	> 100	–	–	–	40.7	–	49.9	–	–	55.3	80.1	–	–
CC[C@@H]1[C@@H](C)O[C@@](O)([C@@H](C)[C@H](O)[C@H](C)[C@H]2OC(=O)/C=C/C=C/[C@H](C)[C@@H]([C@@H](C)[C@@H](O)[C@H](C)[C@@]3(O)C[C@@H](O[C@H]4C[C@@H](O)[C@H](O)C(C)O4)[C@H](CC)[C@@H](C)O3)OC(=O)/C=C/C=C/[C@@H]2C)C[C@H]1O[C@@H]1C[C@@H](O)[C@H](O)C(C)O1 (stereo partly specified)	0.116	0.378	–	–	–	–	0.109	0.389	0.0495	0.149	0.0611	0.117	0.113	0.39	0.0568	0.147	0.0992	0.454	0.0531	0.108
Cn1cc(C2=C(c3ccccc3[N+](=O)[O-])C(=O)NC2=O)c2ccccc21	2.14	> 25	–	–	2.33	12.9	1.81	12.4	0.0705	2.39	3.13	> 25	1.77	> 25	1.65	11.6	8.06	> 20	2.86	3.97
O=C(O)/C=C/C(=O)N1Cc2cc3ccccc3nc2C1	–	> 100	–	–	–	> 100	–	> 100	–	> 100	–	> 100	–	> 100	–	> 100	> 100	> 100	–	–
COc1ccccc1NC(=O)C1=C(C)NC(C)=C(C(=O)Nc2ccccc2OC)C1C1=CC=COC1	–	26	–	48.4	–	–	–	62.7	–	> 100	–	–	–	77.1	–	–	41.9	22.1	–	–
COC1=CC(c2ccc[nH]2)=N/C1=C\c1[nH]c(C)c(CC(=O)OCc2ccccc2)c1CCC(=O)OCc1ccccc1	–	–	0.229	2.29	0.236	0.74	0.287	2.5	0.275	1.53	0.284	1.03	0.345	1.68	0.346	12.6	–	2.43	–	0.345
CCOC(=O)C1SC(=Nc2cccc(Cl)c2C)N=C1C (stereo unspecified)	–	89	–	–	–	61.2	–	32.6	–	61.4	–	32	–	30.3	–	–	–	57.5	–	–
CCOC(=O)c1ccc2c(c1)Cc1cc([N+](=O)[O-])ccc1-2	–	> 100	–	> 100	–	–	–	86.4	–	–	–	> 100	–	> 100	–	> 100	44.2	> 100	–	–
CN1C(=O)CCC2[C@@H]3CC=C4C[C@@H](O)CC[C@]4(C)C3CC[C@@]21C (stereo partly specified)	–	> 100	–	> 100	–	–	–	> 100	–	> 100	–	–	–	> 100	–	–	50.3	> 100	–	–
COc1ccc2sc3cccc(NCCN(C)C)c3c(=O)c2c1	2.37	5.2	2.43	8.39	2.29	5.86	2.03	4.6	2.9	12.8	–	–	–	–	2.96	11.4	6.27	5.57	2.45	2.07
c1ccc([CH2][Sn]([CH2]c2ccccc2)([O]c2cccc3cccnc23)[O]c2cccc3cccnc23)cc1	–	–	–	–	–	–	0.139	0.361	0.468	1.81	0.53	1.65	0.218	0.463	–	–	0.415	0.376	0.213	0.188
CCN(CC)CC(C)(C)C(=O)/C=C/c1cccc(/C=C/C(=O)C(C)(C)CN(CC)CC)c1	–	> 100	–	11.6	–	1.68	–	1.08	–	1.19	–	0.37	–	0.686	–	–	2.97	0.419	–	–
O=S(=O)([O-])c1ccc(N=Cc2ccccc2[O-])cc1.O=S(=O)([O-])c1ccc(N=Cc2ccccc2[O-])cc1.[O]=[U+2]=[O]	> 100	> 100	> 100	> 100	–	–	> 100	> 100	> 100	> 100	> 100	> 100	94.7	> 100	–	–	–	> 100	–	> 100
COc1cc(/C=C2\C[C@H]3[C@@H]4CC=C5C[C@@H](O)CC[C@]5(C)[C@H]4CC[C@]3(C)[C@H]2O)ccc1OCCN1CCCC1	6.86	16.5	–	–	–	–	13.2	> 50	–	–	17.9	> 50	12.8	40.4	7.4	15.1	23.6	> 50	9.58	23.7

Reference: PubChem BioAssay (NCI)
